# Experimental data: patent US12281225B2, “Process for preparing stable polymers containing vinylimidazole” (BASF SE, priority 2018, dated 2025)
# Assay: Physical stability; visual assessment (color, turbidity, phase separation)
# Type: physicochemical
# Parameters: key: ++: no discernible change with respect to color, turbidity or phase separation; +: marginal change in color number, somewhat increased Tyndall effect but no turbidity; 0: easily discernible increase in color number and moderate turbidity−no phase separation; −: turbidity and change in color number readily discernible by visual assessment; −−: strong color change with strong turbidity and incipient phase separation
# Text: Physical stability; visual assessment according to:
# ++=no discernible change with respect to color, turbidity or phase separation; +=marginal change in color number, somewhat increased Tyndall effect but no turbidity; 0=easily discernible increase in color number and moderate turbidity−no phase separation; − turbidity and change in color number readily discernible by visual assessment; −− strong color change with strong turbidity and incipient phase separation.
# Before storage, all batches could be rated ++ (no turbidity or phase separation; no influence of the biocide on the color number of the product).
# [1] = Polymer P5 (HP56) with stabilizer
compound,measurement,setting,value
"Cn1sccc1=O [MIT, methyl-4-isothiazolin-3-one]","Physical stability, 60 d 40° C.*",Polymer P1 with stabilizer,−
same,"Physical stability, 60 d 40° C.*",Polymer P2 with stabilizer,−
same,"Physical stability, 60 d 40° C.*",Polymer P3 with stabilizer,−
same,"Physical stability, 60 d 40° C.*",Polymer P4 with stabilizer,−
same,"Physical stability, 60 d 40° C.*",[1],−
same,"Physical stability, 60 d 40° C.*",Polymer P6 with stabilizer,−
same,"Physical stability, 60 d 40° C.*",Polymer P7 with stabilizer,−
same,"Physical stability, 60 d 40° C.*",Polymer P8 with stabilizer,−
same,"Physical stability, 60 d 40° C.*",Polymer P9 with stabilizer,−
"CCCCCCCCCCCCCCCC[N+](C)(C)Cc1ccccc1.[Cl-] [Polymer 16-BAC, cetylalkonium chloride]","Physical stability, 60 d 40° C.*",Polymer P1 with stabilizer,+
same,"Physical stability, 60 d 40° C.*",Polymer P2 with stabilizer,+
same,"Physical stability, 60 d 40° C.*",Polymer P3 with stabilizer,+
same,"Physical stability, 60 d 40° C.*",Polymer P4 with stabilizer,+
same,"Physical stability, 60 d 40° C.*",[1],+
same,"Physical stability, 60 d 40° C.*",Polymer P6 with stabilizer,+
same,"Physical stability, 60 d 40° C.*",Polymer P7 with stabilizer,+
same,"Physical stability, 60 d 40° C.*",Polymer P8 with stabilizer,+
same,"Physical stability, 60 d 40° C.*",Polymer P9 with stabilizer,++
"CCCCCCCCn1sccc1=O [OIT, octylisothiazolinone]","Physical stability, 60 d 40° C.*",Polymer P1 with stabilizer,−−
same,"Physical stability, 60 d 40° C.*",Polymer P2 with stabilizer,−−
same,"Physical stability, 60 d 40° C.*",Polymer P3 with stabilizer,−−
same,"Physical stability, 60 d 40° C.*",Polymer P4 with stabilizer,−−
same,"Physical stability, 60 d 40° C.*",[1],−−
same,"Physical stability, 60 d 40° C.*",Polymer P6 with stabilizer,−−
same,"Physical stability, 60 d 40° C.*",Polymer P7 with stabilizer,−−
same,"Physical stability, 60 d 40° C.*",Polymer P8 with stabilizer,−−
same,"Physical stability, 60 d 40° C.*",Polymer P9 with stabilizer,−−
benzalkonium chloride [BAC],"Physical stability, 60 d 40° C.*",Polymer P1 with stabilizer,+
same,"Physical stability, 60 d 40° C.*",Polymer P2 with stabilizer,+
same,"Physical stability, 60 d 40° C.*",Polymer P3 with stabilizer,++
same,"Physical stability, 60 d 40° C.*",Polymer P4 with stabilizer,+
same,"Physical stability, 60 d 40° C.*",[1],+
same,"Physical stability, 60 d 40° C.*",Polymer P6 with stabilizer,+
same,"Physical stability, 60 d 40° C.*",Polymer P7 with stabilizer,++
same,"Physical stability, 60 d 40° C.*",Polymer P8 with stabilizer,+
same,"Physical stability, 60 d 40° C.*",Polymer P9 with stabilizer,+
"O=c1[nH]sc2ccccc12 [BIT, 1,2-benzisothiazolin-3-one]","Physical stability, 60 d 40° C.*",Polymer P1 with stabilizer,−
same,"Physical stability, 60 d 40° C.*",Polymer P2 with stabilizer,−
same,"Physical stability, 60 d 40° C.*",Polymer P3 with stabilizer,−
same,"Physical stability, 60 d 40° C.*",Polymer P4 with stabilizer,−
same,"Physical stability, 60 d 40° C.*",[1],−
same,"Physical stability, 60 d 40° C.*",Polymer P6 with stabilizer,−
same,"Physical stability, 60 d 40° C.*",Polymer P7 with stabilizer,−
same,"Physical stability, 60 d 40° C.*",Polymer P8 with stabilizer,−−
same,"Physical stability, 60 d 40° C.*",Polymer P9 with stabilizer,−
"Cn1sc(Cl)cc1=O [CMIT, 5-chloro-N-methylisothiazolin-3-one]","Physical stability, 60 d 40° C.*",Polymer P1 with stabilizer,−−
same,"Physical stability, 60 d 40° C.*",Polymer P2 with stabilizer,−−
same,"Physical stability, 60 d 40° C.*",Polymer P3 with stabilizer,−
same,"Physical stability, 60 d 40° C.*",Polymer P4 with stabilizer,−−
same,"Physical stability, 60 d 40° C.*",[1],−−
same,"Physical stability, 60 d 40° C.*",Polymer P6 with stabilizer,−−
same,"Physical stability, 60 d 40° C.*",Polymer P7 with stabilizer,−
same,"Physical stability, 60 d 40° C.*",Polymer P8 with stabilizer,−−
same,"Physical stability, 60 d 40° C.*",Polymer P9 with stabilizer,−−
"CCCCNC(=O)OCC#CI [Iodopropynyl butyl carbamate, iodopropynyl butyl carbamate]","Physical stability, 60 d 40° C.*",Polymer P1 with stabilizer,−
same,"Physical stability, 60 d 40° C.*",Polymer P2 with stabilizer,−
same,"Physical stability, 60 d 40° C.*",Polymer P3 with stabilizer,−
same,"Physical stability, 60 d 40° C.*",Polymer P4 with stabilizer,−
same,"Physical stability, 60 d 40° C.*",[1],−
same,"Physical stability, 60 d 40° C.*",Polymer P6 with stabilizer,−
same,"Physical stability, 60 d 40° C.*",Polymer P7 with stabilizer,−
same,"Physical stability, 60 d 40° C.*",Polymer P8 with stabilizer,−
same,"Physical stability, 60 d 40° C.*",Polymer P9 with stabilizer,−
"CCCCCCCCn1sc(Cl)c(Cl)c1=O [DCOIT, dichloroctylisothiazolinone]","Physical stability, 60 d 40° C.*",Polymer P1 with stabilizer,−−
same,"Physical stability, 60 d 40° C.*",Polymer P2 with stabilizer,−−
same,"Physical stability, 60 d 40° C.*",Polymer P3 with stabilizer,−−
same,"Physical stability, 60 d 40° C.*",Polymer P4 with stabilizer,−
same,"Physical stability, 60 d 40° C.*",[1],−−
same,"Physical stability, 60 d 40° C.*",Polymer P6 with stabilizer,−−
same,"Physical stability, 60 d 40° C.*",Polymer P7 with stabilizer,−−
same,"Physical stability, 60 d 40° C.*",Polymer P8 with stabilizer,−−
same,"Physical stability, 60 d 40° C.*",Polymer P9 with stabilizer,−
